Test results: PubChem BioAssay (NCI)
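Grown in 96-well plates, cells were treated for 48 hours with each compound at five concentrations. Insufficient inhibition: endpoint recorded as highest concentration tested. TGI: concentration producing complete growth inhibition.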

How the values were obtained:
Assay in all cases: growth of human tumour cells (NCI), 48 h
T-47D breast = tested on: T-47D breast
K-562 leukemia = tested on: K-562 leukemia
NCI-H522 lung = tested on: NCI-H522 lung
IGROV1 ovarian = tested on: IGROV1 ovarian
SNB-75 CNS = tested on: SNB-75 CNS
NCI-H460 lung = tested on: NCI-H460 lung
NCI-H226 lung = tested on: NCI-H226 lung
SK-MEL-2 melanoma = tested on: SK-MEL-2 melanoma
SK-MEL-28 melanoma = tested on: SK-MEL-28 melanoma
A498 renal = tested on: A498 renal
HCT-116 colon = tested on: HCT-116 colon
OVCAR-8 ovarian = tested on: OVCAR-8 ovarian
BT-549 breast = tested on: BT-549 breast
HS 578T breast = tested on: HS 578T breast
LOX IMVI melanoma = tested on: LOX IMVI melanoma
A549 NSCLC = tested on: A549 NSCLC
SF-539 CNS = tested on: SF-539 CNS
OVCAR-5 ovarian = tested on: OVCAR-5 ovarian
SF-295 CNS = tested on: SF-295 CNS

| Structure (SMILES) | TGI (T-47D breast) [µM] | TGI (K-562 leukemia) [µM] | TGI (NCI-H522 lung) [µM] | TGI (IGROV1 ovarian) [µM] | TGI (SNB-75 CNS) [µM] | TGI (NCI-H460 lung) [µM] | TGI (NCI-H226 lung) [µM] | TGI (SK-MEL-2 melanoma) [µM] | TGI (SK-MEL-28 melanoma) [µM] | TGI (A498 renal) [µM] | TGI (HCT-116 colon) [µM] | TGI (OVCAR-8 ovarian) [µM] | TGI (BT-549 breast) [µM] | TGI (HS 578T breast) [µM] | TGI (LOX IMVI melanoma) [µM] | TGI (A549 NSCLC) [µM] | TGI (SF-539 CNS) [µM] | TGI (OVCAR-5 ovarian) [µM] | TGI (SF-295 CNS) [µM] |
| --- | --- | --- | --- | --- | --- | --- | --- | --- | --- | --- | --- | --- | --- | --- | --- | --- | --- | --- | --- |
| O=c1oc2ccccc2c(O)c1C(c1ccc(-c2ccccc2)cc1)c1c(O)c2ccccc2oc1=O | > 100 | > 100 | 66.7 | > 100 | > 100 | 33.7 | 69 | 56.8 | 32 | > 100 | 79.1 | 34.1 | 40.4 | 60.4 | 44.4 | – | – | – | – |
| O=[N+]([O-])c1ccc2sc(/C=N/c3ccccn3)cc2c1 | 74 | 96.6 | > 100 | > 100 | > 100 | > 100 | – | > 100 | > 100 | > 100 | > 100 | > 100 | > 100 | > 100 | > 100 | > 100 | > 100 | > 100 | > 100 |
| C=CCNC1=C2C[C@@H](C)C[C@H](OC)[C@H](O)[C@@H](C)/C=C(\C)[C@H](OC(N)=O)[C@@H](OC)/C=C\C=C(/C)C(=O)NC(=CC1=O)C2=O | 29.5 | 29.7 | 22.3 | 15.1 | 2.72 | 15.9 | 28.9 | 19.1 | 32.5 | 30 | 26.1 | 46 | 31.1 | 47.5 | 2 | 17.8 | 9.5 | 22.6 | 7.46 |
| O=c1[nH][nH]c(=O)n1/N=C/c1ccccc1 | > 100 | > 100 | – | > 100 | > 100 | > 100 | > 100 | > 100 | > 100 | > 100 | > 100 | > 100 | > 100 | > 100 | > 100 | > 100 | > 100 | > 100 | > 100 |
| Nc1nc(Cl)c2ncn(Cc3cccc(CCl)c3)c2n1 | 42.1 | > 51 | 7.03 | 12.3 | 26.8 | 27 | 26.9 | 58.5 | 23.9 | 50.8 | 4.05 | 11.3 | 17.4 | 36.9 | 13.4 | 29.9 | 20 | 22.8 | 21.3 |
| CC(C)OC(=O)[C@H]1ON2O[C@H](O[C@@H]3CCCC[C@H]3c3ccccc3)C([Si](C)(C)c3ccccc3)[C@H]3OC(=O)[C@@H]1C32 (stereo not given in full) | > 100 | > 100 | > 100 | > 100 | > 100 | > 100 | > 100 | > 100 | > 100 | > 100 | > 100 | > 100 | > 100 | > 100 | > 100 | > 100 | > 100 | – | > 100 |
| c1ccc(-c2c(-c3cccs3)[nH]c(-c3cccs3)c2-c2ccccn2)nc1 | 94.9 | 37 | – | 59.3 | 42.9 | 63.5 | 49.2 | – | – | 78.2 | > 100 | 75.2 | 41.5 | 59.7 | 37.1 | 72.8 | 40.6 | 66.6 | 39.2 |
| c1ccc(Cn2c(-c3ccc(-c4ccccc4)cc3)cc3ccccc32)cc1 | > 100 | – | > 100 | > 100 | > 100 | > 100 | > 100 | > 100 | > 100 | – | > 100 | > 100 | > 100 | > 100 | > 100 | > 100 | > 100 | > 100 | > 100 |
| O=[N+]([O-])c1cc(N=Nc2c(O)ccc3cc(S(=O)(=O)O)ccc23)c(O)c([N+](=O)[O-])c1 | > 100 | > 100 | > 100 | > 100 | > 100 | – | > 100 | > 100 | > 100 | – | > 100 | > 100 | > 100 | > 100 | > 100 | > 100 | – | > 100 | > 100 |
| COC(=O)c1c(C)c2c(c(C)c1C(=O)OC)-c1c(C)ccc3ccc(C)c-2c13 | > 95.7 | > 100 | > 100 | > 100 | > 100 | > 69.4 | > 100 | > 100 | > 100 | > 100 | > 100 | > 100 | > 100 | > 100 | > 86.5 | > 100 | > 100 | > 100 | > 87.1 |
| CC/C(Cl)=N\OC(=O)Nc1ccc(OC)c(C)c1 | 39.1 | > 91.2 | 4.18 | 39.1 | > 100 | > 100 | 70.4 | 49.9 | 62 | 61.2 | 29.6 | 39.2 | 34.9 | 59.2 | 31.1 | > 71.4 | 42 | 71.6 | > 100 |
| CCOC(=O)CCC(NC(=O)c1ccc(Oc2nc3c(N)cc(C(F)(F)F)cc3nc2-c2ccccc2)cc1)C(=O)OCC (stereo not given) | > 100 | > 100 | 45.4 | > 100 | 25.4 | > 100 | > 55.8 | > 30.7 | > 100 | > 94.3 | > 25.2 | > 80.7 | > 95 | > 72.8 | > 100 | > 100 | 8.48 | > 100 | 96.8 |
| CCOC(=O)C1C(c2ccc(OC)cc2)c2c([nH][nH]c2=O)CC1(C)O (stereo not given) | > 100 | – | > 100 | > 100 | > 100 | > 100 | – | > 100 | > 100 | > 100 | > 100 | > 100 | > 100 | > 100 | > 100 | > 100 | > 100 | > 100 | > 100 |
